Results taken from ChEMBL document CHEMBL1201862, “PubChem BioAssay data set” (2004).
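Step 1: Grow cells in 96-well plates. Step 2: Expose to compound for 48 hours at 5 concentrations. Step 3: Interpolate endpoints linearly; if unreached, use highest concentration. GI50: concentration for 50% inhibition of growth.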 Activity calls are given as the source filed them. Cut-off read from the data, not from the text of the source: active = GI50 up to about 1.1 µM and inactive = higher.

Key:
Test in all cases: DTP human tumour cell line panel, 48 h
[1] = system: A498
[2] = system: A549
[3] = system: CAKI-1
[4] = system: CCRF-CEM
[5] = system: COLO 205
[6] = system: DLD-1
[7] = system: DMS-114
[8] = system: DMS-273
[9] = system: EKVX
[10] = system: HCC 2998
[11] = system: HCT-116
[12] = system: HCT-15
[13] = system: HL-60
[14] = system: HOP-18
[15] = system: HOP-62
[16] = system: HOP-92
[17] = system: HT-29
[18] = system: IGROV-1
[19] = system: K562
[20] = system: KM-20L2
[21] = system: KM12
[22] = system: LOX IMVI
[23] = system: M19-MEL
[24] = system: MCF7
[25] = system: MOLT-4
[26] = system: Malme-3M
[27] = system: NCI-H226
[28] = system: NCI-H23
[29] = system: NCI-H460
[30] = system: NCI-H522
[31] = system: NCI/ADR-RES
[32] = system: OVCAR-3
[33] = system: OVCAR-4
[34] = system: OVCAR-5
[35] = system: OVCAR-8
[36] = system: RPMI-8226
[37] = system: RXF 393
[38] = system: SF-268
[39] = system: SF-295
[40] = system: SF-539
[41] = system: SK-MEL-28
[42] = system: SK-MEL-2
[43] = system: SK-MEL-5
[44] = system: SK-OV-3
[45] = system: SN12C
[46] = system: SNB-19
[47] = system: SNB-75
[48] = system: SNB-78
[49] = system: SW-620
[50] = system: U-251
[51] = system: UACC-257
[52] = system: UACC-62
[53] = system: UO-31
[54] = system: XF498

For `CCOC(=O)CN(CC)C(=O)NC12CC3CC(CC(C3)C1)C2`, the GI50 [1] was 136 µM (inactive), the GI50 [2] was 222 µM (inactive) and the GI50 [3] was 169 µM (inactive). For the same compound, the GI50 [4] was 211 µM (inactive), the GI50 [5] was 141 µM (inactive) and the GI50 [6] was 65.8 µM (inactive). For the same compound, the GI50 [7] was 134 µM (inactive), the GI50 [8] was 233 µM (inactive) and the GI50 [9] was 207 µM (inactive). For the same compound, the GI50 [10] was 222 µM (inactive), the GI50 [11] was 189 µM (inactive) and the GI50 [12] was 220 µM. The GI50 [13] was 103 µM (inactive), the GI50 [14] was 148 µM (inactive) and the GI50 [15] was 188 µM (inactive). For the same compound, the GI50 [16] was 67 µM (inactive), the GI50 [17] was 166 µM (inactive) and the GI50 [18] was 276 µM (inactive). For the same compound, the GI50 [19] was 180 µM (inactive), the GI50 [20] was 170 µM (inactive) and the GI50 [21] was 255 µM (inactive). The GI50 [22] was 151 µM (inactive), the GI50 [23] was 184 µM (inactive) and the GI50 [24] was 177 µM (inactive). For the same compound, the GI50 [25] was 133 µM (inactive), the GI50 [26] was 152 µM (inactive) and the GI50 [27] was 160 µM (inactive). For the same compound, the GI50 [28] was 208 µM (inactive), the GI50 [29] was 200 µM (inactive) and the GI50 [30] was 155 µM (inactive). The GI50 [31] was 196 µM (inactive), the GI50 [32] was 105 µM (inactive) and the GI50 [33] was 175 µM (inactive). The GI50 [34] was 225 µM (inactive), the GI50 [35] was 292 µM (inactive) and the GI50 [36] was 141 µM (inactive). The GI50 [37] was 173 µM (inactive), the GI50 [38] was 281 µM (inactive) and the GI50 [39] was 230 µM (inactive). For the same compound, the GI50 [40] was 244 µM (inactive), the GI50 [41] was 269 µM (inactive) and the GI50 [42] was 131 µM (inactive). The GI50 [43] was 109 µM (inactive), the GI50 [44] was 218 µM (inactive) and the GI50 [45] was 288 µM (inactive). The GI50 [46] was 339 µM (inactive), the GI50 [47] was 92.9 µM (inactive) and the GI50 [48] was 240 µM (inactive). For the same compound, the GI50 [49] was 219 µM (inactive), the GI50 [50] was 246 µM (inactive) and the GI50 [51] was 144 µM (inactive). The GI50 [52] was 116 µM (inactive), the GI50 [53] was 139 µM (inactive) and the GI50 [54] was 125 µM (inactive).
